Measured values from US20220033397A1, “PHARMACEUTICAL COMPOUNDS AND THEIR USE AS INHIBITORS OF UBIQUITIN SPECIFIC PROTEASE 19 (USP19)” (ALMAC DISCOVERY LIMITED, priority 2018, published 2022).

Biological target: T1, Full-length USP19 (Homo sapiens, UniProt O94966)
T1 construct: Full-length USP19 was purchased from Boston Biochem (E-576); purchased Boston Biochem E-576
T1 sequence (O94966 1-1318): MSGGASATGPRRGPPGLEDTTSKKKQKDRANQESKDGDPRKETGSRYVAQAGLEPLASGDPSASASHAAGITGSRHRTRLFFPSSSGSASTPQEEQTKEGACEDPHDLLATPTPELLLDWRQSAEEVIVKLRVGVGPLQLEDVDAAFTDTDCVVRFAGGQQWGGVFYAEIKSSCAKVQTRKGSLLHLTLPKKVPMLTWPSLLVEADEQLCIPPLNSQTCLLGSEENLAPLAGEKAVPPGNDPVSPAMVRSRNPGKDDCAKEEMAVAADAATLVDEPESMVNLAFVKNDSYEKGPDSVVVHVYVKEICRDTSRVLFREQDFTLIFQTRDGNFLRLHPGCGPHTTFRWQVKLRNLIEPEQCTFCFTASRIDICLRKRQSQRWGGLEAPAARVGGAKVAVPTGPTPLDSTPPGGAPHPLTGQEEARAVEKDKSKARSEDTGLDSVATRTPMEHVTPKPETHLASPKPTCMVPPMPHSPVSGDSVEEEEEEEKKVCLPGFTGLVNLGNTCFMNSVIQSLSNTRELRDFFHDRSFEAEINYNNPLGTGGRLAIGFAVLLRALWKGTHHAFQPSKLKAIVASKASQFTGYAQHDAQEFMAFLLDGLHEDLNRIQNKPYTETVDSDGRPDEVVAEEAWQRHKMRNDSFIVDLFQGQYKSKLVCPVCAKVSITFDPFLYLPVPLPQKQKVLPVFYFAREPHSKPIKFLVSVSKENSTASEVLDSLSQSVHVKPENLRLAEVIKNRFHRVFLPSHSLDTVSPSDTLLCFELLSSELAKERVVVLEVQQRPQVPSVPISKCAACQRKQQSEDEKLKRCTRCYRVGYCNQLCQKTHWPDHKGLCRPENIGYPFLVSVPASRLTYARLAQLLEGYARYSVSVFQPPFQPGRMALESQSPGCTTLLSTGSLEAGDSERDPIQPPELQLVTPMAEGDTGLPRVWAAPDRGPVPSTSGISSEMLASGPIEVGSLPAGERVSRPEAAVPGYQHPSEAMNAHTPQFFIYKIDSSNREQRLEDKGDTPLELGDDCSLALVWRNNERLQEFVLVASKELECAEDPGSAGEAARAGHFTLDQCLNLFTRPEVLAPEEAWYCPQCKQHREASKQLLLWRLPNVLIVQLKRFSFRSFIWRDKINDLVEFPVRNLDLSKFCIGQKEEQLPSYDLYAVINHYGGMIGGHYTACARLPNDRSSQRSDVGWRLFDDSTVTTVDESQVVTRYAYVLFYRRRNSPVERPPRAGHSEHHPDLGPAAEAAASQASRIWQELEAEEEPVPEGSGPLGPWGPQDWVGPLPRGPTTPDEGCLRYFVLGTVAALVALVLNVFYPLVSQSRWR
Assay: USP19 fluorescence polarisation (FP) homogeneous assay with Ubiquitin-Lys-TAMRA substrate
Format: biochemical
Details: 2.5 nM USP19, 30 min pre-incubation, average of at least two duplicate experiments
Outline: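 Full-length USP19 preincubated 30 min at RT with inhibitor (200 μM to 2 μM series, 8–18 points) before adding 500 nM Ubiquitin-Lys-TAMRA substrate.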

| SMILES | IC50 [µM] |
| --- | --- |
| O=C(N1CCC(O)(Cn2ccc(-c3ccccc3)cc2=O)C2(CCCC2)C1)N1CCNCC1c1cc(F)ccc1F [Example 374, 1-(((S)-7-((R)-2-(2,5-Difluorophenyl)piper-azine-1-carbonyl)-10-hydroxy-7-azaspiro[4.5]decan-10-yl)methyl)-4-phenylpyridin-2(1H)-one] | < 0.5 |
| O=C(N1CC[C@@](O)(Cn2cnc(-c3ccc4c(c3)CCO4)cc2=O)C2(CCCC2)C1)N1CCNC[C@H]1c1ccccc1 [Example 346, 6-(2,3-Dihydrobenzofuran-5-yl)-3-(((S)-10-hydroxy-7-((R)-2-phenylpiperazine-1-carbonyl)-7-aza-spiro[4.5]decan-10-yl)methyl)pyrimidin-4(3H)-one] | < 0.5 |
| C[C@H](CC(F)(F)F)C(=O)N1CCC(O)(Cn2cnc3ccc(F)cc3c2=O)C2(CCCC2)C1 (stereo partly drawn) [Example 148, 6-Fluoro-3-((10-hydroxy-7-((R)-4,4,4-trifluoro-2-methylbutanoyl)-7-azaspiro[4.5]decan-10-yl)methyl)quinazolin-4(3H)-one] | 5 to 50 |
| C[C@H](CC1CCCCC1)C(=O)N1CCC(O)(CN2CCN(S(C)(=O)=O)CC2=O)C2(CCCC2)C1 (stereo partly drawn) [Example 49, 1-((7-((R)-3-Cyclohexyl-2-methylpropanoyl)-10-hydroxy-7-azaspiro[4.5]decan-10-yl)methyl)-4-(methylsulfonyl)piperazin-2-one] | 0.5 to 5 |
| C[C@H](CC(F)(F)F)C(=O)N1CCC(O)(CN2CCOCC2=O)C2(CCCC2)C1 (stereo partly drawn) [Example 32, 4-((10-Hydroxy-7-((R)-4,4,4-trifluoro-2-methylbutanoyl)-7-azaspiro[4.5]decan-10-yl)methyl)morpholin-3-one] | 50 to 250 |
| C[C@H](CC1CCCCC1)C(=O)N1CCC(O)(Cn2cc(C(=O)N3CCNCC3)ncc2=O)C2(CCCC2)C1 (stereo partly drawn) [Example 11, 1-((7-((R)-3-Cyclohexyl-2-methylpropanoyl)-10-hydroxy-7-azaspiro[4.5]decan-10-yl)methyl)-5-(piperazine-1-carbonyl)pyrazin-2(1H)-one] | < 0.5 |
| CC(=O)N1CCN(CC2(O)CCN(C(=O)NCc3ccccc3)CC23CCCC3)C(=O)C1 (stereo not drawn) [Example 111, 10-((4-Acetyl-2-oxopiperazin-1-yl)methyl)-N-benzyl-10-hydroxy-7-azaspiro[4.5]decane-7-carboxamide] | 5 to 50 |
| CN(C)C(=O)c1cn(CC2(O)CCN(C(=O)NCc3ccccc3)CC23CCCC3)c(=O)cc1-c1ccccc1 (stereo not drawn) [Example 85, N-Benzyl-10-((5-(dimethylcarbamoyl)-2-oxo-4-phenylpyridin-1(2H)-yl)methyl)-10-hydroxy-7-azaspiro[4.5]decane-7-carboxamide] | < 0.5 |
| C[C@H](CC1CCCCC1)C(=O)N1CCC(O)(Cn2cc(Br)ncc2=O)C2(CCCC2)C1 (stereo partly drawn) [Example 7, 5-Bromo-1-((7-((R)-3-cyclohexyl-2-methylpropanoyl)-10-hydroxy-7-azaspiro[4.5]decan-10-yl)methyl)pyrazin-2(1H)-one] | < 0.5 |
| O=C(N1CCC(O)(Cn2cnc3cc(F)c(F)cc3c2=O)C2(CCCC2)C1)N1CCNC[C@H]1c1ccccc1 (stereo partly drawn) [Example 170, 6,7-Difluoro-3-((10-hydroxy-7-((R)-2-phenylpiperazine-1-carbonyl)-7-azaspiro[4.5]decan-10-yl)methyl)quinazolin-4(3H)-one] | < 0.5 |
| O=C(N1CCC(O)(Cn2ccc(-c3ccccc3)c(F)c2=O)C2(CCCC2)C1)N1CCNC[C@H]1c1ccccc1 (stereo partly drawn) [Example 332, 3-Fluoro-1-((10-hydroxy-7-((R)-2-phenylpiperazine-1-carbonyl)-7-azaspiro[4.5]decan-10-yl)methyl)-4-phenylpyridin-2(1H)-one] | 0.5 to 5 |
| O=C(N1CCC(O)(Cn2cnc(-c3ccccc3)cc2=O)C2(CCCC2)C1)N1CCCC1C(F)(F)F (stereo not drawn) [Example 206, 3-((10-Hydroxy-7-(2-(trifluoromethyl)pyrrolidine-1-carbonyl)-7-azaspiro[4.5]decan-10-yl)methyl)-6-phenylpyrimidin-4(3H)-one] | 0.5 to 5 |
| Cn1cc2ncn(CC3(O)CCN(C(=O)N4CCNC[C@H]4c4ccccc4)CC34CCCC4)c(=O)c2n1 (stereo partly drawn) [Example 179, 6-((10-Hydroxy-7-((R)-2-phenylpiperazine-1-carbonyl)-7-azaspiro[4.5]decan-10-yl)methyl)-2-methyl-2,6-dihydro-7H-pyrazolo[4,3-d]pyrimidin-7-one] | 5 to 50 |
| O=C(N1CC[C@@](O)(Cn2cnc(N3CCC(F)(F)C3)cc2=O)C2(CCCC2)C1)N1CCNC[C@H]1c1ccccc1 [Example 359, 6-(3,3-Difluoro-pyrrolidin-1-yl)-3-(((S)-10-hydroxy-7-((R)-2-phenylpiperazine-1-carbonyl)-7-aza-spiro[4.5]decan-10-yl)methyl)pyrimidin-4(3H)-one] | < 0.5 |
| C[C@H](CC1CCCCC1)C(=O)N1CCC(O)(Cn2cc(-c3cccnc3)ncc2=O)C(C)(C)C1 (stereo partly drawn) [Example 12, 1-((1-((R)-3-Cyclohexyl-2-methylpropanoyl)-4-hydroxy-3,3-dimethylpiperidin-4-yl)methyl)-5-(pyridin-3-yl)pyrazin-2(1H)-one] | 0.5 to 5 |
| C[C@H](CC1CCCCC1)C(=O)N1CCC(O)(CN2CCOCC2=O)C2(CCCC2)C1 (stereo partly drawn) [Example 31, 4-((7-((R)-3-Cyclohexyl-2-methylpropanoyl)-10-hydroxy-7-azaspiro[4.5]decan-10-yl)methyl)morpholin-3-one] | < 0.5 |
| O=C(N1CCC(O)(Cn2cnc(-c3ccccc3)cc2=O)C2(CCC2)C1)N1CCNC[C@H]1c1ccccc1 (stereo partly drawn) [Example 306, 3-((9-Hydroxy-6-((R)-2-phenylpiperazine-1-carbonyl)-6-azaspiro[3.5]nonan-9-yl)methyl)-6-phenylpyrimidin-4(3H)-one] | < 0.5 |
| CSc1cn(CC2(O)CCN(C(=O)[C@H](C)CC3CCCCC3)CC23CCCC3)c(=O)cc1-c1ccccc1 (stereo partly drawn) [Example 78, 1-((7-((R)-3-Cyclohexyl-2-methylpropanoyl)-10-hydroxy-7-azaspiro[4.5]decan-10-yl)methyl)-5-(methylthio)-4-phenylpyridin-2(1H)-one] | < 0.5 |
| O=C(N1CCC(n2cccc2)C1)N1CCC(O)(Cn2cnc(-c3ccccc3)cc2=O)C2(CCCC2)C1 (stereo not drawn) [Example 246, 3-((7-(3-(1H-Pyrrol-1-yl)pyrrolidine-1-carbonyl)-10-hydroxy-7-azaspiro[4.5]decan-10-yl)methyl)-6-phenylpyrimidin-4(3H)-one] | 5 to 50 |
| C[C@H](CC1CCCCC1)C(=O)N1CCC(O)(Cn2cc(C(=O)N(C)C)ncc2=O)C2(CCCC2)C1 (stereo partly drawn) [Example 10, 4-((7-((R)-3-Cyclohexyl-2-methylpropanoyl)-10-hydroxy-7-azaspiro[4.5]decan-10-yl)methyl)-N,N-dimethyl-5-oxo-4,5-dihydropyrazine-2-carboxamide] | < 0.5 |
| CC1(CNC(=O)N2CCC(O)(Cn3cnc(-c4ccccc4)cc3=O)C3(CCCC3)C2)CC1 (stereo not drawn) [Example 256, 10-Hydroxy-N-((1-methylcyclopropyl)methyl)-10-((6-oxo-4-phenylpyrimidin-1(6H)-yl)methyl)-7-azaspiro[4.5]decane-7-carboxamide] | 5 to 50 |
| Cn1nccc1-c1cc(=O)n(C[C@]2(O)CCN(C(=O)N3CCOC[C@H]3c3ccc(F)cc3)CC23CCCC3)cn1 [Example 284, 3-(((S)-7-((R)-3-(4-Fluorophenyl)morpholine-4-carbonyl)-10-hydroxy-7-azaspiro[4.5]decan-10-yl)methyl)-6-(1-methyl-1H-pyrazol-5-yl)pyrimidin-4(3H)-one] | < 0.5 |
| CSc1cn(CC2(O)CCN(C(=O)[C@H](C)CC3CCCCC3)CC23CCCC3)c(=O)cc1Cl (stereo partly drawn) [Example 76, 4-Chloro-1-((7-((R)-3-cyclohexyl-2-methylpropanoyl)-10-hydroxy-7-azaspiro[4.5]decan-10-yl)methyl)-5-(methylthio)pyridin-2(1H)-one] | < 0.5 |
| O=C(NCc1ccccc1)N1CCC(O)(Cn2cnc(Cl)cc2=O)C2(CCCC2)C1 (stereo not drawn) [Example 198, N-Benzyl-10-((4-chloro-6-oxopyrimidin-1(6H)-yl)methyl)-10-hydroxy-7-azaspiro[4.5]decane-7-carboxamide] | 50 to 250 |
